Experimental data published in patent US10556860B2, “hTERT modulators and methods of use” (Arizona Board of Regents on Behalf of the University of …, priority 2015, dated 2020).

Columns and labels:
[1] = system: G124/125A mutant hTERT 5-12 fragment; assay: Single-molecule laser tweezer unfolding, G124/125A mutant; type: biochemical, human; settings: 2 μM, 10 mM Tris, 100 mM KCl, pH 7.4; single- and double-stranded template
Description: Single-molecule tweezer. Preparation of the DNA construct. The DNA construct that contains the single-stranded hTERT 5-12 fragment was prepared by sandwiching the target sequence between two double-stranded DNA handles. Five deoxythymidines were added at both ends of the hTERT 5-12 fragment to reduce the interference from the double-stranded DNA handles on the target sequence. Briefly, the 2690-base-pair double-stranded DNA handle was prepared through restriction enzyme digestion of the pEGFP vector (Clontech, Mountain View, Calif.). In the first step, the vector was digested by Sad and Eagl restriction enzymes, followed by purification with agarose gel. The EagI end of the DNA fragment was labeled with digoxigenin using terminal deoxynucleotidyl transferase. […]
Single-molecule force-ramp assay. […] After this, the two beads were moved apart to increase the tension on the DNA tether with a loading rate of 5.5 pN/s, and the force-extension (F-X) curves were recorded using the LabVIEW program (National Instruments Corp., Austin, Tex.).
The F-X curves were filtered by Savitzky-Golay function with a 10 ms time constant in the MATLAB program (The Math Works, Natick, Mass.). […] The change-in-contour length (ΔL) was calculated based on the Δx through the worm-like chain model (equation 1). […]

[2] = system: UACC-903, a G124A mutant melanoma cell line; assay: Viability of G124A mutant melanoma cells; type: cell-based, human; settings: 72 h
Description: FIGS. 13A-13C are a set of graphs showingselective reduction in viability (A) and hTERT expression (B) in melanoma cells carrying hTERT core promotor mutations. NHM-002 (normal human melanocytes) and a G124A mutant cell line were treated with vehicle, 1.25, 2.5, and 5 μM GTC365 for 72 h. Viability was reduced in hTERT mutant melanoma cells by 50% (left). […] (C) Differential response to GTC365 in WT and promoter mutant cell lines.
Next, to assess the selectivity of GTC365 for hTERT-dependent cancer cells relative to normal precursorcells, we compared the effects of a range of […] on viability at 72 h in normal humanmelanocytes (NHM-002) relative to those of UACC-903, aG124A mutant (FIG. 13A). […] To confirm that the reduction in cell viability was aresult of hTERT downregulation, we performed reverse transcription and qPCR to measure the mRNA level of hTERT expression in cells treated with DMSO or 5 μMGTC365. hTERT expression was reduced by 41% in themelanoma cell line after 72 h but was undetectable in normalmelanocytes, even in the absence of GTC365 (FIG. 13B). Finally, tobroadly assess the selectivity of GTC365 for hTERT promotermutant versus WT cells, we conducted a 6-point 72 h MTSproliferation assay to determine EC50s in 14 additional melanoma cell lines with characterized TERT promoter status([…]) (FIG. 13C). […]

For `N=C(N)NCCCS(=O)(=O)Nc1ccc(Nc2c3ccccc3nc3cc([N+](=O)[O-])ccc23)cc1` [GTC365], which “full-length G-rich species (>36 nt/bp) population” value [1] is on record?
The value was “recovered”.

What about the viability ([2]; 5 μM) of the same compound?
The viability was “below 50%”.

What about the reduction of viability ([2]; hTERT mutant melanoma cells, up to 5 μM) of the same compound?
Its reduction of viability is 50%.
